Assay results published in PubChem BioAssay AID179 (DTP/NCI, 2004).
Several values for one entry are separate records, joined by “and”; a condition that tells them apart may be missing. Equal values may be shown once. Activity calls are given as the source filed them.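 How the source made its calls: active means compounds giving half or more protection of infected cells from virus-caused growth loss, again on retest; inactive means the rest.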

Tested on: CEM cells HIV-1 protection, formazan growth assay
Test: NCI AIDS Antiviral Assay
Details: for IC50: measured here: growth of uninfected CEM cells
Outline: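 Category rules: moderately active means at least 50% protection on retest, and confirmed active means 100% protection reproducibly. The underlying data came from a formazan growth assay in HIV-1-infected CEM cells.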

SMILES: Cc1nc2c(N)c3nc(C)n(N)c(=O)c3cc2c(=O)n1N
- EC50: > 2.14 µM
- IC50: > 2.14 µM

SMILES: C=C1C(OO)O[C@@H]2O[C@@]3(C)CC[C@H]4[C@H](C)CC[C@@H]1[C@@]24O3 (stereo not given in full)
- EC50: > 200 µM
- IC50: 27.5 µM

SMILES: O=S(=O)(O)c1ccc(N=Nc2ccc(N=Nc3c(O)c(S(=O)(=O)O)cc4cc(S(=O)(=O)O)ccc34)cc2)cc1
- outcome: inactive

SMILES: CN(C)CNc1ncnc2onc(-c3ccccc3)c12
- outcome: inactive

SMILES: COC(=O)Cc1ccc2c(c1)Sc1ccc(CC(=O)OC)cc1N2C
- EC50: > 200 µM
- IC50: 4.47 µM

SMILES: Cc1cnoc1/N=C1\C=C(Nc2oncc2C)C(=O)c2ccccc21
- EC50: > 4.37 µM
- IC50: > 4.37 µM

SMILES: CC(NO)/C(=N/O)c1ccco1 (stereo not given)
- EC50: > 200 µM
- IC50: > 200 µM

SMILES: CCc1ccc([OH2+])c(C(=O)[O-])c1.CCc1ccc([OH2+])c(C(=O)[O-])c1.CCc1ccc([OH2+])c(C(=O)[O-])c1.CCc1ccc([OH2+])c(C(=O)[O-])c1.[Cu+2].[Cu+2]
- EC50: > 200 µM
- IC50: 23.4 µM

SMILES: CCOC(=O)C1Cc2ccc3c4c(ccc(c24)C1)CC(C(=O)OCC)C3
- outcome: inactive

SMILES: N/C(=N\C(O)C(Cl)(Cl)Cl)SCNC(=O)NCS/C(N)=N/C(O)C(Cl)(Cl)Cl (stereo not given)
- EC50: > 158 µM
- IC50: 126 µM

SMILES: CC1=C(C(=O)Nc2cccc(Cl)c2)C(c2ccccc2F)C(C(=O)Nc2cccc(Cl)c2)=C(C)N1
- EC50: > 14.1 µM
- IC50: > 14.1 µM

SMILES: N#CCC(O)CC#N
- outcome: inactive

SMILES: O=c1c(O)c(-c2ccc(-c3oc4ccccc4c(=O)c3O)cc2)oc2ccccc12
- EC50: > 200 µM
- IC50: 93.3 µM

SMILES: O=S(=O)(O)CCS(=O)(=O)O
- EC50: > 200 µM
- IC50: > 200 µM

SMILES: N#CC1(Cc2ccc(N)cc2)c2ccccc2C=CN1C(=O)c1ccccc1 (stereo not given)
- outcome: inactive

SMILES: COc1ccccc1N1C(=O)/C(=C\c2cccc(Oc3ccccc3)c2)S(=O)(=O)C1c1ccccc1 (stereo not given)
- EC50: > 200 µM
- IC50: 36.3 µM

SMILES: Nc1ncnc2c1ncn2C1CC(CO)C(CO)C1 (stereo not given)
- EC50: > 95.5 µM
- IC50: > 95.5 µM

SMILES: CCCCCCCCCc1cc(O)c(O)cc1CCCCCCCCC
- EC50: > 100 µM
- IC50: 47.9 µM

SMILES: N#CC1(C#N)[C@@H]2CCC=C(Sc3ccccc3)[C@@H]21
- EC50: > 200 µM
- IC50: 9.12 µM

SMILES: N[C@@H]1c2c(Br)sc(Br)c2C(=O)[C@H]1Br
- EC50: > 200 µM
- IC50: 23.4 µM and 26.9 µM

SMILES: O=C1[C@@H]2C(c3ccccc3)=NO[C@@H]2C(=O)N1c1ccc(Cc2ccc(N3C(=O)[C@H]4C(c5ccccc5)=NO[C@H]4C3=O)cc2)cc1
- EC50: > 31.6 µM
- IC50: > 31.6 µM

SMILES: C[C@H](N[C@H]1CCC[C@]1(O)C#Cc1ccc2c(c1)OCO2)c1ccccc1
- EC50: > 50.1 µM
- IC50: 28.8 µM

SMILES: COC1C=C(NCC2(CO)CCC2)NC(N)=N1 (stereo not given)
- EC50: > 200 µM
- IC50: > 200 µM

SMILES: CCOC(=O)C(C(=O)OCC)S(C)(=O)=O
- EC50: > 251 µM
- IC50: > 251 µM

SMILES: CCOc1ccc(NC(=O)C(=O)CC(=O)c2sc(NNC(C)=O)nc2C)cc1
- EC50: > 44.7 µM
- IC50: > 44.7 µM

SMILES: Cc1ccccc1N1C(=O)[N+](C)(C)N=C1[O-]
- EC50: > 1150 µM
- IC50: > 1150 µM

SMILES: CSc1nc(N)n(C(=O)c2ccc([N+](=O)[O-])cc2)n1
- EC50: > 13.5 µM
- IC50: > 13.5 µM

SMILES: CC1=C2c3ccccc3N(C(=O)/C=C/C(=O)O)[C@H]2[C@H]2C(=O)OC(=O)[C@H]2C1
- EC50: > 200 µM
- IC50: 151 µM

SMILES: COc1cc(C2c3cc4c(cc3C(O)[C@H]3COC(=O)[C@@H]23)OCO4)cc(OC)c1O (stereo not given in full)
- EC50: > 200 µM
- IC50: 1.12 µM

SMILES: CC1CC2OC(/C=C/C=C/C=C/C=C\C=C\C(O)=C3/C(=O)C(C(C)C)N(C)C3=O)C(O)C2O1 (stereo not given)
- EC50: > 200 µM
- IC50: 107 µM

SMILES: O=P(Nc1ccc(Cl)cc1)(Oc1ccccc1)N(CCCl)CCCl (stereo not given)
- EC50: > 17.8 µM
- IC50: 8.71 µM

SMILES: O=C(CCc1cc(O)cc(O)c1)NCCCNC(=O)CCc1cc(O)cc(O)c1
- EC50: > 200 µM
- IC50: > 200 µM

SMILES: COC(=O)NC1(NC(=O)OC)NC(=O)c2ccccc2N1
- EC50: > 200 µM
- IC50: > 200 µM

SMILES: C=C(C)C1Cc2c(cc(O)c3c(=O)c4c(oc23)C(O)Oc2cc(OC)c(OC)cc2-4)O1 (stereo not given)
- EC50: > 200 µM
- IC50: 72.4 µM

SMILES: NC(CO)Cc1cnc[nH]1 (stereo not given)
- EC50: > 200 µM
- IC50: > 200 µM

SMILES: CCOC(=O)c1cn2c(nc1=O)N[C@H]1CCCC[C@@H]12
- EC50: > 200 µM
- IC50: > 200 µM

SMILES: Cn1c(-c2cccs2)cc(-c2cccs2)c1-c1cccs1
- EC50: > 200 µM
- IC50: 33.9 µM

SMILES: CC1C=C(Sc2ccccc2)C(=O)O1 (stereo not given)
- EC50: > 468 µM
- IC50: 25.1 µM

SMILES: Cc1cc2nc3c(C(OC4OC(CO)C(O)C(O)C4O)C(O)CO)nn(-c4ccccc4)c3nc2cc1C (stereo not given)
- outcome: inactive

SMILES: O=C1NC(N2CCCC(CO)C2)=N/C1=C\c1ccccc1 (stereo not given)
- EC50: > 200 µM
- IC50: > 200 µM

SMILES: N#CCN1c2ccccc2CCC1Cl (stereo not given)
- EC50: > 200 µM
- IC50: > 200 µM

SMILES: COC1=CC(=O)C(O)=C(C[C@@]2(C)C3CCCC(C)(C)C3=CC[C@@H]2C)C1=O (stereo not given in full)
- EC50: > 363 µM
- IC50: 19.5 µM

SMILES: C1CCN(C2OC3C(COC3N3CCCCC3)OC2OC2CCO[C@@H]2N2CCCCC2)CC1 (stereo not given in full)
- EC50: > 38.9 µM
- IC50: 3.39 µM

SMILES: O=C1Cc2c(-c3ccccc3)cc(-c3ccccc3)nc2-c2ccccc2N1
- EC50: > 200 µM
- IC50: 6.17 µM

SMILES: CC1C(=NO)C(C)C(c2ccccc2)N(N=O)C1c1ccccc1 (stereo not given)
- EC50: > 200 µM
- IC50: > 200 µM

SMILES: N#CC1(C#N)NC(c2ccsc2)C(C#N)(C#N)NC1c1ccsc1 (stereo not given)
- EC50: > 200 µM
- IC50: 115 µM

SMILES: CC(=O)NC(CCC(=O)c1ccc(C)cc1)(C(=O)O)C(=O)O
- EC50: > 200 µM
- IC50: > 200 µM

SMILES: CCCC(C(=O)OCCN1CCCC12CCCCC2)C1CCCC1 (stereo not given)
- EC50: > 200 µM
- IC50: 11 µM

SMILES: CCC[CH2][Sn]1([CH2]CCC)[O]C(=O)c2cccc(C)c2[O]1
- outcome: inactive

SMILES: Nc1cc(F)c2cccnc2c1O
- EC50: > 200 µM
- IC50: 11.7 µM

SMILES: COc1ccc(/S(C)=N/S(=O)(=O)c2ccc(C)cc2)cc1 (stereo not given)
- EC50: > 288 µM
- IC50: 263 µM

SMILES: N#Cc1c2c(c(N=P(c3ccccc3)(c3ccccc3)c3ccccc3)n3c1nc1ccccc13)CCCC2
- EC50: > 1.05 µM
- IC50: > 1.05 µM

SMILES: NCC1OC(OC2C(CO)OC(OC3C(O)C(N)CC(N)C3OC3OC(CN)C(O)C(O)C3N)C2O)C(N)C(O)C1O (stereo not given) (tested in a mixture with another compound)
- EC50: > 135 µM
- IC50: 9.33 µM

SMILES: COC1=C(NC(C)=O)C(=O)c2nc3n(c2C1=O)CCC3
- EC50: > 200 µM
- IC50: 75.9 µM

SMILES: CC1C2CC(C(C3C(=O)C4CC3C(C)(C)C4C)C2=O)C1(C)C (stereo not given)
- EC50: > 437 µM
- IC50: > 437 µM

SMILES: N#C/C(=C\c1ccccc1)c1cccc(I)c1
- EC50: > 200 µM
- IC50: 55 µM

SMILES: CC(=O)c1c(O)c2ccccc2oc1=O
- EC50: > 200 µM
- IC50: 120 µM

SMILES: CN1CCN(C(=O)CCN2c3ccccc3Sc3ccccc32)CC1
- EC50: > 513 µM
- IC50: 117 µM

SMILES: O=C(O)CCNC(=O)OCc1ccccc1
- EC50: > 200 µM
- IC50: > 200 µM

SMILES: CCON1CC(C(=O)OC)=C(O)C1=O
- EC50: > 200 µM
- IC50: > 200 µM

SMILES: Cn1c2c(c3ccccc3c1=O)C(=O)c1ccccc1-2
- EC50: > 14.5 µM
- IC50: 7.41 µM

SMILES: CCN1CN(c2ccccc2)C2(CCN(CC3COc4ccccc4O3)CC2)C1=O (stereo not given)
- EC50: > 200 µM
- IC50: 115 µM

SMILES: NS(=O)(=O)c1ccc(NC(=O)CC(=O)Nc2ccc(S(N)(=O)=O)cc2)cc1
- outcome: inactive

SMILES: O=C1NC(=O)C2(c3ccccc3)CCN1C2=O (stereo not given)
- EC50: > 200 µM
- IC50: > 200 µM
